Data reported in patent US20240368214A1, “POSITIVE NMDA-MODULATING COMPOUNDS AND METHODS OF USE THEREOF” (SAGE THERAPEUTICS, INC., priority 2021, published 2024).
pEC50: −log10 of the molar value.

Molecular target: T1, recombinant human GluN1/GluN2A receptor (Homo sapiens, UniProt Q05586+Q12879)
T1 construct: expressed in transfected cells; host or cells: HEK293, tetracycline-inducible expression
Test: Whole-cell patch clamp of mammalian cells (Syncropatch 384i), NMDA modulation
Assay type: cell-based
Settings: Table B-2, HEK293 cells, human GluN1/GluN2A, glutamate 1 μM / glycine 100 μM, -80 mV, peak amplitude increase; for pEC50: read-out: EC50
Source text: Whole-Cell Patch Clamp of Mammalian Cells (Syncropatch 384i (Nanion Technologies))
Whole-cell patch clamp electrophysiology was used to investigate the effects of compounds on GluN1/GluN2A N-methyl-D-aspartate (NMDA) glutamate receptors expressed in mammalian cells.
Human embryonic kidney (HEK293) cells expressing the recombinant human GluN1/GluN2A receptor under the control of a tetracycline-inducible expression system were used. Cells were maintained in Dulbecco's Modified Eagle's Medium (DMEM) with 1% glutamine, 10% Tetracycline System Approved fetal bovine serum (FBS), and NMDA inhibitors. Cells were cultured in a humidified 5% CO2 incubator at 37° C. Cells were induced with 50 ng/ml tetracycline 18-24 hours prior to testing. A cocktail of channel blockers was added to the media to prevent cell death.
Cells were 60-80% confluent at the time of harvest. Cells were detached from the flask TrypLE Enzyme Express (Thermo Fisher) at 37° C., and then cold extracellular solution was added to the flask, followed by incubation at 4° C. and then trituration of the cells. The cell solution was then placed on a shaker on the Syncropatch platform at 10° C. with a shake speed of a minimum 200 rpm for at least 30 minutes prior to testing.
Extracellular (EC) solution (in mM) —140 NaCl, 4 KCl, 5 CaCl2, 10 HEPES, 5 Glucose, pH 7.4 with NaOH. All external solutions contained 0.2% DMSO and 0.01% Kolliphor® EL (C5135, Sigma) throughout the experiment.
Intracellular (IC) solution (in mM) —120 CsF, 10 mM EGTA, 10 NaCl, 10 HEPES, 4 NaATP, 2 MgCl2, pH 7.2 with CsOH.
First, the DMSO Master Plate was prepared, in which the DMSO stock of each test compound was serially diluted in 100% DMSO to 1000× the final assay concentration. Immediately prior to assay testing, the compounds were diluted 1:100 by transferring solutions from the DMSO Mast Plate to the Intermediate Plate pre-filled with EC solution using a Biomek FX automated liquid handling system. Compounds were then diluted further with extracellular solution into two pre-incubation plates—1) compound from the Intermediate Plate was mixed with EC solution at a 1:5 dilution to create a 2× Compound Pre-Incubation Plate which was diluted a further 1:2 when added to the Syncropatch for the initial compound pre-incubation. And 2) compound from the Intermediate plate was mixed with EC solution at a 1:10 Dilution to create the 1× Compound Pre-Incubation Plate, which was used for subsequent compound pre-incubations. Finally, a Compound+Agonist Plate was prepared by mixing compound from the 2× Compound Pre-Incubation Plate with 2× concentration of co-agonists in a 1:1 ratio.
Each experiment sequentially included cell catching, sealing, whole-cell formation, liquid application, recording and data acquisition. Whole-cell patch clamp recordings were performed using multi-hole high resistance chips on the SyncroPatch 384i (Nanion Technologies). A steady-state voltage pulse at -80 mV was applied throughout the assay and a 10 second recording window was triggered around 1 second prior to application of co-agonists. Currents were leak corrected and sampled at 5 kHz.
A fast application was used, in which 5 μl co-agonist was rapidly applied at a speed of 30 μl/s and then rapidly removed from the well. To test for modulator activity, the co-agonists glutamate (1 μM) and glycine (100 μM) were applied three times to show activation reproducibility, followed by 120 seconds pre-incubation of test compound alone. The test compound was then re-applied in the presence of co-agonists two times. This was followed by application of the agonist alone, although test compound may not be fully washed from the well prior to this step. Finally, a saturating concentration of co-agonists (glutamate 100 μM/glycine 100 μM) was applied.
The voltage protocol generation data collection and analysis were performed on PatchControll384 and DataControll384. […]

T1 sequence (Q12879 23-1464, other chains not shown): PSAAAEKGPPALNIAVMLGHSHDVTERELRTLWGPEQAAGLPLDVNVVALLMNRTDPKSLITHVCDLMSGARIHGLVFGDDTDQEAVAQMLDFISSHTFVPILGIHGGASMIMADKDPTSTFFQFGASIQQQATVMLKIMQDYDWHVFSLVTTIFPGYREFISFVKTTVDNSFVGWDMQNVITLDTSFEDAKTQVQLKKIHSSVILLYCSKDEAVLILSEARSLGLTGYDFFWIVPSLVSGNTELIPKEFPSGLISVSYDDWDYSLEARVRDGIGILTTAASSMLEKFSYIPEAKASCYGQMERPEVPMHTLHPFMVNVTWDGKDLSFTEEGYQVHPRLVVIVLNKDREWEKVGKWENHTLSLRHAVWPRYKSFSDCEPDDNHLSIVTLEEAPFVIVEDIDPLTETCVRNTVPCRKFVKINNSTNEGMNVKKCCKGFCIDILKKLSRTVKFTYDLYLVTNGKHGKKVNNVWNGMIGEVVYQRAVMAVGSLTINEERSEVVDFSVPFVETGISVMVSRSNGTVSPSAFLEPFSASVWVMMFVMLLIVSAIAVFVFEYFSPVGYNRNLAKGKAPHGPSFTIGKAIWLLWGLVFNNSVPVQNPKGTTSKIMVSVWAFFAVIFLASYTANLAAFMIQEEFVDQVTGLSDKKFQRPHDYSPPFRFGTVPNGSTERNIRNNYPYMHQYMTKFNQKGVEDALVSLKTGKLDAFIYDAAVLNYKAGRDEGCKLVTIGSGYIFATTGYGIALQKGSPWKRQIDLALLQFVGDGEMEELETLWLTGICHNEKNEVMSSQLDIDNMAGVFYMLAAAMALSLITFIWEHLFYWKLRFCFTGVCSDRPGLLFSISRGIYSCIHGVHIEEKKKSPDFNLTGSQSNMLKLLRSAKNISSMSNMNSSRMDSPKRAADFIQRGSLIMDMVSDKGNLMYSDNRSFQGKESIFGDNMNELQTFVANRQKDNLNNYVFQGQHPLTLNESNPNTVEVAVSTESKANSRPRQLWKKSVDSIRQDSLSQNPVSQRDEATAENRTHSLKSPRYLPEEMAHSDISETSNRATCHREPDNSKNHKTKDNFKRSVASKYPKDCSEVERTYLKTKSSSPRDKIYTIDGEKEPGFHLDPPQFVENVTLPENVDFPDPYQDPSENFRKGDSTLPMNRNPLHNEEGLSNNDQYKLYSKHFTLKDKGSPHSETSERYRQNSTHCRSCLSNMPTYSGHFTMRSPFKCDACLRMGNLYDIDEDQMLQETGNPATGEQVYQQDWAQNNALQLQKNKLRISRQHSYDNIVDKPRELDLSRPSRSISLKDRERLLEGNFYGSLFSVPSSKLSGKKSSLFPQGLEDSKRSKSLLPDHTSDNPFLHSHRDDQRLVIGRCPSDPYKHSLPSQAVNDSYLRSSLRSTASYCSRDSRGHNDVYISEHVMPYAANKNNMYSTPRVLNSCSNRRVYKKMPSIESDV

SMILES | Emax | pEC50
CC[C@]1(O)CC[C@@]2(C)[C@@H](CC[C@H]3[C@@H]4[C@H]5C[C@H]5[C@H]([C@H](C)CC[C@@](C)(O)C(F)(F)F)[C@@]4(C)CC[C@@H]32)C1 [Compound B-7, (2S,4aS,4bS,6aR,7S,7aR,8aS,8bS,8cR,10aS)-2-ethyl-4a, 6a-dimethyl-7-((2R,5R)-6,6,6-trifluoro-5-hydroxy-5-methylhexan-2-yl)octadecahydrocyclopropa[4,5]cyclopenta[1,2-a]phenanthren-2-ol] | 100 to 200% | 6.30 to 7.00
CC[C@]1(O)CC[C@@]2(C)[C@@H](CC[C@@H]3[C@@H]2CC[C@@]2(C)[C@H]3C[C@H]3C[C@]32[C@H](C)CCCC(C)(C)O)C1 [Compound B-8, (2aS,4S,6aS,6bS,8aS,8bS,9aS,10aS,10bR)-4-ethyl-8b-((R)-6-hydroxy-6-methylheptan-2-yl)-6a,8a-dimethyloctadecahydrocyclopropa[3,4]cyclopenta[1,2-a]phenanthren-4-ol] | 100 to 200% | < 6.00
CC[C@]1(O)CC[C@@]2(C)[C@@H](CC[C@@H]3[C@@H]2CC[C@@]2(C)[C@H]3C[C@H]3C[C@]32[C@H](C)CC[C@](C)(O)C(F)(F)F)C1 [Compound B-10, (2aS,4S,6aS,6bS,8aS,8bS,9aS,10aS,10bR)-4-ethyl-6a,8a-dimethyl-8b-((2R,5S)-6,6,6-trifluoro-5-hydroxy-5-methylhexan-2-yl)octadecahydrocyclopropa[3,4]cyclopenta[1,2-a]phenanthren-4-ol] | 100 to 200% | 7.00 to 9.00
CC[C@]1(O)CC[C@@]2(C)[C@@H](CC[C@@H]3[C@@H]2CC[C@@]2(C)[C@H]3C[C@H]3C[C@]32[C@H](C)CC[C@@](C)(O)C(F)(F)F)C1 [Compound B-11, (2aS,4S,6aS,6bS,8aS,8bS,9aS,10aS,10bR)-4-ethyl-6a,8a-dimethyl-8b-((2R,5R)-6,6,6-trifluoro-5-hydroxy-5-methylhexan-2-yl)octadecahydrocyclopropa[3,4]cyclopenta[1,2-a]phenanthren-4-ol] | 100 to 200% | 7.00 to 9.00
CC[C@]1(O)CC[C@@]2(C)[C@@H](CC[C@H]3[C@@H]4[C@@H](C)C[C@H]([C@H](C)CCCC(C)(C)O)[C@@]4(C)CC[C@@H]32)C1 [Compound B-12, (3S,5S,8R,9S,10S,13R,14S,15S,17R)-3-ethyl-17-((R)-6-hydroxy-6-methylheptan-2-yl)-10,13,15-trimethylhexadecahydro-1H-cyclopenta[a]phenanthren-3-ol] | 100 to 200% | 7.00 to 9.00
CC[C@]1(O)CC[C@@]2(C)[C@@H](CC[C@H]3[C@@H]4[C@@H](C)C[C@H]([C@H](C)CC[C@@](C)(O)C(F)(F)F)[C@@]4(C)CC[C@@H]32)C1 [Compound B-13, (3S,5S,8R,9S,10S,13R,14S,15S,17R)-3-ethyl-10,13,15-trimethyl-17-((2R,5R)-6,6,6-trifluoro-5-hydroxy-5-methylhexan-2-yl)hexadecahydro-1H-cyclopenta[a]phenanthren-3-ol] | > 200% | 6.30 to 7.00
CC[C@]1(O)CC[C@@]2(C)[C@@H](CC[C@H]3[C@@H]4[C@@H](C)C[C@H]([C@H](C)CC[C@](C)(O)C(F)(F)F)[C@@]4(C)CC[C@@H]32)C1 [Compound B-14, (3S,5S,8R,9S,10S,13R,14S,15S,17R)-3-ethyl-10,13,15-trimethyl-17-((2R,5S)-6,6,6-trifluoro-5-hydroxy-5-methylhexan-2-yl)hexadecahydro-1H-cyclopenta[a]phenanthren-3-ol] | > 200% | 7.00 to 9.00
CC[C@]1(O)CC[C@@]2(C)[C@@H](CC[C@H]3[C@@H]4[C@H](C)C[C@H]([C@H](C)CC[C@](C)(O)C(F)(F)F)[C@@]4(C)CC[C@@H]32)C1 [Compound B-15, (3S,5S,8R,9S,10S,13R,14S,15R,17R)-3-ethyl-10,13,15-trimethyl-17-((2R,5S)-6,6,6-trifluoro-5-hydroxy-5-methylhexan-2-yl)hexadecahydro-1H-cyclopenta[a]phenanthren-3-ol] | 100 to 200% | 7.00 to 9.00
